Measurements as given in ChEMBL document CHEMBL1201862, “PubChem BioAssay data set” (2004).
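Five compound concentrations were applied to cells in 96-well plates for 48 hours; endpoints were derived by simple linear interpolation of the resulting dose-response curve. GI50 = concentration required for 50% inhibition of growth.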 The source made the active and inactive calls. Rule as the data show it: active = GI50 up to about 1.1 µM and inactive = higher.

Key:
Assay in all cases: DTP human tumour cell line panel, 48 h
OVCAR-4 = system: OVCAR-4
DLD-1 = system: DLD-1
SNB-75 = system: SNB-75
UO-31 = system: UO-31
NCI-H23 = system: NCI-H23
SK-MEL-5 = system: SK-MEL-5
HCC 2998 = system: HCC 2998
OVCAR-8 = system: OVCAR-8
RPMI-8226 = system: RPMI-8226
K562 = system: K562
HOP-62 = system: HOP-62
TK-10 = system: TK-10
OVCAR-3 = system: OVCAR-3
RXF 631 = system: RXF 631
786-0 = system: 786-0
HT-29 = system: HT-29
SNB-78 = system: SNB-78
ACHN = system: ACHN
Malme-3M = system: Malme-3M
OVCAR-5 = system: OVCAR-5
UACC-62 = system: UACC-62
M14 = system: M14
SN12C = system: SN12C
A498 = system: A498
A549 = system: A549
SF-268 = system: SF-268
SK-MEL-28 = system: SK-MEL-28
HOP-92 = system: HOP-92
HOP-18 = system: HOP-18
SK-OV-3 = system: SK-OV-3
CAKI-1 = system: CAKI-1
SF-295 = system: SF-295
COLO 205 = system: COLO 205
HCT-15 = system: HCT-15
CCRF-CEM = system: CCRF-CEM
KM12 = system: KM12
U-251 = system: U-251
EKVX = system: EKVX
SK-MEL-2 = system: SK-MEL-2
NCI-H226 = system: NCI-H226
SNB-19 = system: SNB-19
SF-539 = system: SF-539
DMS-114 = system: DMS-114
SW-620 = system: SW-620
DMS-273 = system: DMS-273
M19-MEL = system: M19-MEL
NCI-H460 = system: NCI-H460
LXFL 529 = system: LXFL 529
IGROV-1 = system: IGROV-1
HCT-116 = system: HCT-116
RXF 393 = system: RXF 393
KM-20L2 = system: KM-20L2
UACC-257 = system: UACC-257
MOLT-4 = system: MOLT-4
LOX IMVI = system: LOX IMVI
XF498 = system: XF498
NCI-H522 = system: NCI-H522

In the case of `C=CCO/N=C(\OC(=O)c1ccc([N+](=O)[O-])cc1)c1ccccc1`, the GI50 (OVCAR-4) is reported as > 100 µM (inactive), the GI50 (DLD-1) is reported as > 100 µM (inactive) and the GI50 (SNB-75) is reported as > 100 µM (inactive). For the same compound, the GI50 (UO-31) was > 100 µM (inactive), the GI50 (NCI-H23) was > 100 µM (inactive) and the GI50 (SK-MEL-5) was > 100 µM (inactive). The GI50 (HCC 2998) was > 100 µM (inactive), the GI50 (OVCAR-8) was > 100 µM (inactive) and the GI50 (RPMI-8226) was > 100 µM (inactive). The GI50 (K562) was > 100 µM (inactive), the GI50 (HOP-62) was > 100 µM (inactive) and the GI50 (TK-10) was > 100 µM (inactive). The GI50 (OVCAR-3) was > 100 µM (inactive), the GI50 (RXF 631) was > 100 µM (inactive) and the GI50 (786-0) was > 100 µM (inactive). The GI50 (HT-29) was > 100 µM (inactive), the GI50 (SNB-78) was > 100 µM (inactive) and the GI50 (ACHN) was > 100 µM (inactive). The GI50 (Malme-3M) was > 100 µM (inactive), the GI50 (OVCAR-5) was > 100 µM (inactive) and the GI50 (UACC-62) was > 100 µM (inactive). For the same compound, the GI50 (M14) was > 100 µM (inactive), the GI50 (SN12C) was > 100 µM (inactive) and the GI50 (A498) was > 100 µM (inactive). The GI50 (A549) was > 100 µM (inactive), the GI50 (SF-268) was > 100 µM (inactive) and the GI50 (SK-MEL-28) was > 100 µM (inactive). For the same compound, the GI50 (HOP-92) was > 100 µM (inactive), the GI50 (HOP-18) was > 100 µM (inactive) and the GI50 (SK-OV-3) was > 100 µM (inactive). The GI50 (CAKI-1) was > 100 µM (inactive), the GI50 (SF-295) was > 100 µM (inactive) and the GI50 (COLO 205) was > 100 µM (inactive). For the same compound, the GI50 (HCT-15) was > 100 µM, the GI50 (CCRF-CEM) was > 100 µM (inactive) and the GI50 (KM12) was > 100 µM (inactive). The GI50 (U-251) was > 100 µM (inactive), the GI50 (EKVX) was > 100 µM (inactive) and the GI50 (SK-MEL-2) was > 100 µM (inactive). For the same compound, the GI50 (NCI-H226) was > 100 µM (inactive), the GI50 (SNB-19) was > 100 µM (inactive) and the GI50 (SF-539) was > 100 µM (inactive). The GI50 (DMS-114) was > 100 µM (inactive), the GI50 (SW-620) was > 100 µM (inactive) and the GI50 (DMS-273) was > 100 µM (inactive). The GI50 (M19-MEL) was > 100 µM (inactive), the GI50 (NCI-H460) was > 100 µM (inactive) and the GI50 (LXFL 529) was > 100 µM (inactive). The GI50 (IGROV-1) was > 100 µM (inactive).

For `COC(=O)c1ccccc1NC(=O)C(=O)Cc1nc2c3c(ccc2nc1O)C(=O)c1ccccc1C3=O`, the GI50 (OVCAR-4) was 9.06 µM (inactive), the GI50 (DLD-1) was 6.35 µM (inactive) and the GI50 (SNB-75) was 28.1 µM (inactive). The GI50 (HCT-116) was 9.29 µM (inactive), the GI50 (UO-31) was 12.2 µM (inactive) and the GI50 (NCI-H23) was 11.5 µM (inactive). The GI50 (SK-MEL-5) was 2.99 µM (inactive), the GI50 (HCC 2998) was 16.8 µM (inactive) and the GI50 (OVCAR-8) was 24.3 µM (inactive). For the same compound, the GI50 (RPMI-8226) was 8.2 µM (inactive), the GI50 (RXF 393) was 2.08 µM (inactive) and the GI50 (K562) was 23.9 µM (inactive). For the same compound, the GI50 (HOP-62) was 13.9 µM (inactive), the GI50 (TK-10) was 23.8 µM (inactive) and the GI50 (OVCAR-3) was 15 µM (inactive). For the same compound, the GI50 (RXF 631) was 25.2 µM (inactive), the GI50 (786-0) was 16.2 µM (inactive) and the GI50 (HT-29) was 35.9 µM (inactive). For the same compound, the GI50 (SNB-78) was 34 µM (inactive), the GI50 (ACHN) was 25 µM (inactive) and the GI50 (Malme-3M) was 8.26 µM (inactive). For the same compound, the GI50 (OVCAR-5) was 79.4 µM (inactive), the GI50 (UACC-62) was 4.48 µM (inactive) and the GI50 (M14) was 12.7 µM (inactive). For the same compound, the GI50 (SN12C) was 29.6 µM (inactive), the GI50 (A498) was 35.1 µM (inactive) and the GI50 (KM-20L2) was 32.7 µM (inactive). The GI50 (A549) was 14 µM (inactive), the GI50 (SF-268) was 6.38 µM (inactive) and the GI50 (SK-MEL-28) was 15.7 µM (inactive). The GI50 (HOP-92) was 15.8 µM (inactive), the GI50 (HOP-18) was > 100 µM (inactive) and the GI50 (UACC-257) was 16.3 µM (inactive). For the same compound, the GI50 (SK-OV-3) was 10.1 µM (inactive), the GI50 (MOLT-4) was 10.3 µM (inactive) and the GI50 (CAKI-1) was 10.9 µM (inactive). The GI50 (COLO 205) was 15.8 µM (inactive), the GI50 (HCT-15) was 21.9 µM and the GI50 (CCRF-CEM) was 3.75 µM (inactive). For the same compound, the GI50 (KM12) was 5.26 µM (inactive), the GI50 (U-251) was 17.1 µM (inactive) and the GI50 (LOX IMVI) was 12.5 µM (inactive). The GI50 (EKVX) was 5.21 µM (inactive), the GI50 (SK-MEL-2) was 15 µM (inactive) and the GI50 (XF498) was 26.7 µM (inactive). The GI50 (NCI-H226) was 4.48 µM (inactive), the GI50 (NCI-H522) was 9.14 µM (inactive) and the GI50 (SNB-19) was 12.6 µM (inactive). The GI50 (SF-539) was 23.9 µM (inactive), the GI50 (DMS-114) was 7.62 µM (inactive) and the GI50 (SW-620) was 5.56 µM (inactive). The GI50 (DMS-273) was 11.8 µM (inactive), the GI50 (M19-MEL) was 6.56 µM (inactive) and the GI50 (NCI-H460) was 16.2 µM (inactive). The GI50 (LXFL 529) was 22.6 µM (inactive) and the GI50 (IGROV-1) was 15.7 µM (inactive).
